According to patent US5440016A, “Peptides of the formula (KFmoc) ZZZ and their uses” (priority 1993, dated 1995):
≈ marks a conversion by molar mass, not a printed value. Like-named read-outs stand apart in the source and are kept apart here. Square brackets hold non-standard residues; d marks the D form. Peptide text beside a SMILES is read from it. * marks the point of attachment. Fmoc = O=C(OCC1c2ccccc2-c2ccccc21)*

Tests used:
[1] = system: Human red blood cells (RBCs); test: Hemolytic activity; assay type: cell-based
[2] = system: Escherichia coli ATCC 25922
[3] = system: Staphylococcus aureus ATCC 29213
Experimental: Escherichia coli ATCC 25922 and P. aeruginosa ATCC 27853 were used as Gram-negative (-) and Staphylococcus aureus ATCC 29213 as Gram-positive (+) bacteria. Bacteria were grown overnight at 37° C. in Mueller-Hinton (MH) broth. This culture was reinoculated and incubated at 37° C. to reach the exponential phase of bacteria growth, i.e., a final bacterial suspension containing 10^5 to 5×10^5 colony-forming units (CFU)/ml. The concentration of cells was established by plating 100 μl of different dilutions of the culture solution (e.g., 10^-2, 10^-3 and 10^-4) onto solid agar plates.
Following an overnight incubation at 37° C., the CFU thus formed were counted on each agar plate. In 96-well tissue culture plates, as control blanks, eight wells per plate contained only medium, while as a positive growth control, eight other wells contained medium plus cells.
The plates were incubated overnight at 37° C., and the optical density (OD) determined at 620 nm after different times of incubation.

[4] = system: Streptococcus sanguis ATCC 10556
Experimental: Streptococcus sanguis ATCC 10556 (Gram-positive (+) bacteria present in tooth crevices) was grown overnight at 37° C. in Brain Heart Infusion (BHI) broth. This culture was reinoculated and incubated at 37° C. to reach the exponential phase of bacteria growth, i.e., a final bacterial suspension containing 10^5 to 5×10^5 colony-forming units (CFU)/ml. The concentration of cells was established by plating 100 μl of different dilutions of the culture solution (e.g., 10^-2, 10^-4) and 10^-4) onto solid agar plates. Following an overnight incubation at 37° C., the CFU thus formed were counted on each agar plate. In 96-well tissue culture plates, as control blanks, eight wells per plate contained only medium, while as a positive growth control, eight other wells contained medium plus cells. […] The plates were incubated overnight at 37° C., and the optical density (OD) determined at 620 nm after 20 to 24 hours incubation.

[5] = system: Candida albicans ATCC 10231
[6] = Tables 2-5, concentration necessary to inhibit 50% growth
[7] = Tables 3-5, lower parts (unnatural amino acids)
[8] = Tables 7-9, lower parts (unnatural amino acids)
[9] = Tables 11-13, lower parts (unnatural amino acids)
[10] = Tables 15-17, lower parts (unnatural amino acids)

Compound | HD50 (concentration necessary to lyse 50% of the cells) ([1]; Tables 18-21) | IC50 against E. coli [2, 6] | IC50 against S. aureus ([3]; Tables 6-9) | IC50 against S. sanguis ([4]; Tables 10-13) | IC50 against C. albicans ([5]; Tables 14-17) | IC50 against E. coli [2, 7] | IC50 against S. aureus [3, 8] | IC50 against S. sanguis [4, 9] | IC50 against C. albicans [5, 10] | HD50 (concentration necessary to lyse 50% of the cells) ([1]; Table 20, lower part)
C[C@H](O)[C@@H](NC(=O)[C@H](Cc1ccc(O)cc1)NC(=O)[C@H](Cc1c[nH]c2ccccc12)NC(=O)[C@H](CCCCN)NC(=O)OCC1c2ccccc2-c2ccccc21)C(N)=O [(KFmoc)WYt-NH2] (Fmoc-KWY[dT]-NH2) | 37 µg/mL | 81 µg/mL (≈ 99 µM) | 9 µg/mL (≈ 11 µM) | 8 µg/mL (≈ 9.78 µM) | 161 µg/mL (≈ 197 µM) | – | – | – | – | –
CC(C)C[C@@H](NC(=O)[C@@H](Cc1ccccc1)NC(=O)[C@H](Cc1c[nH]c2ccccc12)NC(=O)[C@H](CCCCN)NC(=O)OCC1c2ccccc2-c2ccccc21)C(N)=O [(KFmoc)Wfl-NH2] (Fmoc-KW[dF][dL]-NH2) | 197 µg/mL | 28 µg/mL (≈ 34.4 µM) | 2 µg/mL (≈ 2.46 µM) | 2 µg/mL (≈ 2.46 µM) | 127 µg/mL (≈ 156 µM) | – | – | – | – | –
NCCCC[C@H](NC(=O)OCC1c2ccccc2-c2ccccc21)C(=O)N[C@@H](Cc1c[nH]c2ccccc12)C(=O)N[C@H](Cc1ccccc1)C(=O)N1CCC[C@@H]1C(N)=O [(KFmoc)Wfp-NH2] (Fmoc-KW[dF][dP]-NH2) | 65 µg/mL | 30 µg/mL (≈ 37.6 µM) | 7 µg/mL (≈ 8.77 µM) | 6 µg/mL (≈ 7.52 µM) | 347 µg/mL (≈ 435 µM) | – | – | – | – | –
N=C(N)NCCC[C@@H](NC(=O)[C@@H](Cc1ccccc1)NC(=O)[C@H](Cc1c[nH]c2ccccc12)NC(=O)[C@H](CCCCN)NC(=O)OCC1c2ccccc2-c2ccccc21)C(N)=O [(KFmoc)Wfr-NH2] (Fmoc-KW[dF][dR]-NH2) | 42 µg/mL | 15 µg/mL (≈ 17.5 µM) | 2 µg/mL (≈ 2.33 µM) | 2 µg/mL (≈ 2.33 µM) | 42 µg/mL (≈ 49 µM) | – | – | – | – | –
(KFmoc)WK(dOrn)-NH2 | 369 µg/mL | 69 µg/mL | 5 µg/mL | 5 µg/mL | 196 µg/mL | – | – | – | – | –
(KFmoc)WY(dOrn)-NH2 | 67 µg/mL | – | – | – | – | 35 μg/m | 5 μg/m | 7 μg/m | 359 μg/m | –
(KFmoc)Wf(Bala)-NH2 | – | – | – | – | – | 70 μg/m | 11 μg/m | 10 μg/m | 170 μg/m | 360 μg/m
(KFmoc)Wf(Hyp)-NH2 | – | – | – | – | – | 44 μg/m | 5 μg/m | 8 μg/m | 95 μg/m | 37 μg/m
(KFmoc)Wf(KCBZ)-NH2 | – | – | – | – | – | 28 μg/m | 3 μg/m | 4 μg/m | 58 μg/m | 52 μg/m
(KFmoc)Wf(aABA)-NH2 | – | – | – | – | – | 21 μg/m | 6 μg/m | 7 μg/m | 72 μg/m | 241 μg/m
(KFmoc)Wf(aAIB)-NH2 | – | – | – | – | – | 27 μg/m | 4 μg/m | 4 μg/m | 62 μg/m | 383 μg/m
